Data published in ChEMBL document CHEMBL4507290 (2021).

Columns and labels:
[1] = biological target: MAP/microtubule affinity-regulating kinase 3 (Homo sapiens) (UniProt P27448); conditions: Compound concentration 1000.0 nM
[2] = biological target: Calcium/calmodulin-dependent protein kinase type 1D (Homo sapiens) (UniProt Q8IU85); conditions: Compound concentration 1000.0 nM
[3] = tested on: Epidermal growth factor receptor (Homo sapiens), P00533 [L858R,T790M]; conditions: Compound concentration 1000.0 nM
[4] = biological target: Serine/threonine-protein kinase TBK1 (Homo sapiens) (UniProt Q9UHD2); conditions: Compound concentration 1000.0 nM
[5] = biological target: Protein kinase C eta type (Homo sapiens) (UniProt P24723); conditions: Compound concentration 1000.0 nM
[6] = biological target: Serine/threonine-protein kinase mTOR (Homo sapiens) (UniProt P42345); conditions: Compound concentration 1000.0 nM
[7] = biological target: Serine/threonine-protein kinase 38-like (Homo sapiens) (UniProt Q9Y2H1); conditions: Compound concentration 1000.0 nM
Serine/threonine-protein kinase 38-like (Homo sapiens), sequence (Q9Y2H1 2-464 limits assumed): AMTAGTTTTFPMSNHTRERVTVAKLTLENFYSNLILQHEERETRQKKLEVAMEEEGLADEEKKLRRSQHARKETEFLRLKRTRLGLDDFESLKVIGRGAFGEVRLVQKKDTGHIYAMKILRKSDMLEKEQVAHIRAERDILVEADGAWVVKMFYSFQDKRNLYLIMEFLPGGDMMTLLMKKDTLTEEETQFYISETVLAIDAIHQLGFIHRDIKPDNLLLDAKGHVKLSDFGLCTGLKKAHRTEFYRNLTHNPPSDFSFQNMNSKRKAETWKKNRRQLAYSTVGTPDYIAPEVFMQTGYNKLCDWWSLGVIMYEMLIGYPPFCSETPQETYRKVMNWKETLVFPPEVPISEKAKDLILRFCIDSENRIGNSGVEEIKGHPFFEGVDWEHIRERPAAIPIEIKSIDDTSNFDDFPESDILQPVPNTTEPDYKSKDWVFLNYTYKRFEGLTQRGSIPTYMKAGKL

[8] = biological target: Mitogen-activated protein kinase 7 (Homo sapiens) (UniProt Q13164); conditions: Compound concentration 1000.0 nM
Mitogen-activated protein kinase 7 (Homo sapiens), sequence (Q13164 2-816 limits assumed): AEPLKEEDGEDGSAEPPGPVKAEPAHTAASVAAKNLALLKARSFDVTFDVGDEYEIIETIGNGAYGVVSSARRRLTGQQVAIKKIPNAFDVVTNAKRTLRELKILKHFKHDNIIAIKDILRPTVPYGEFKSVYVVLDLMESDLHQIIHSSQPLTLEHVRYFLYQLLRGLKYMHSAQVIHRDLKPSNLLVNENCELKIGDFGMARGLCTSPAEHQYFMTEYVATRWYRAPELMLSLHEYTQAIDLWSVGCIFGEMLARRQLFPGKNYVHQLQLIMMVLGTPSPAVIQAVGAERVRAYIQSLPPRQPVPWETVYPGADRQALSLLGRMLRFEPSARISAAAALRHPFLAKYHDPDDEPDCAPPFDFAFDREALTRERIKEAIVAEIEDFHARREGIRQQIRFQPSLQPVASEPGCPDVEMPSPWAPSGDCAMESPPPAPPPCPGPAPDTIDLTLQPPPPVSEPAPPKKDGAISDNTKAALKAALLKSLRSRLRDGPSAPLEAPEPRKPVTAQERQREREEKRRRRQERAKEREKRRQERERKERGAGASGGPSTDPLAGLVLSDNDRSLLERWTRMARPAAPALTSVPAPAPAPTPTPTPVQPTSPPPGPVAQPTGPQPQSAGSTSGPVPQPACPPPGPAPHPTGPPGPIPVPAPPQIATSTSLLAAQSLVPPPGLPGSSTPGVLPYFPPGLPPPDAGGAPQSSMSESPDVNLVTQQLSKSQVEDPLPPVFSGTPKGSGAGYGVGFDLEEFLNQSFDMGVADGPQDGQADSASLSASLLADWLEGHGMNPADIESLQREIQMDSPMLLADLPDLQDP

[9] = biological target: Protein kinase C delta type (Homo sapiens) (UniProt Q05655); conditions: Compound concentration 1000.0 nM
[10] = biological target: Tyrosine-protein kinase Fer (Homo sapiens) (UniProt P16591); conditions: Compound concentration 1000.0 nM
[11] = biological target: Insulin-like growth factor 1 receptor (Homo sapiens) (UniProt P08069); conditions: Compound concentration 1000.0 nM
[12] = biological target: Serine/threonine-protein kinase pim-3 (Homo sapiens) (UniProt Q86V86); conditions: Compound concentration 1000.0 nM
[13] = biological target: Myosin light chain kinase (Homo sapiens) (UniProt Q32MK0); conditions: Compound concentration 1000.0 nM
[14] = biological target: Dual specificity protein kinase CLK3 (Homo sapiens) (UniProt P49761); conditions: Compound concentration 1000.0 nM
[15] = biological target: Calcium/calmodulin-dependent protein kinase type II subunit beta (Homo sapiens) (UniProt Q13554); conditions: Compound concentration 1000.0 nM
[16] = biological target: Serine/threonine-protein kinase 38 (Homo sapiens) (UniProt Q15208); conditions: Compound concentration 1000.0 nM
[17] = biological target: Mitogen-activated protein kinase kinase kinase 4 (Homo sapiens) (UniProt Q9Y6R4); conditions: Compound concentration 1000.0 nM
[18] = biological target: Dual specificity mitogen-activated protein kinase kinase 1 (Homo sapiens) (UniProt Q02750); conditions: Compound concentration 1000.0 nM
[19] = biological target: Dual specificity protein kinase CLK2 (Homo sapiens) (UniProt P49760); conditions: Compound concentration 1000.0 nM
[20] = biological target: Receptor tyrosine-protein kinase erbB-4 (Homo sapiens) (UniProt Q15303); conditions: Compound concentration 1000.0 nM
[21] = biological target: Dual specificity mitogen-activated protein kinase kinase 3 (Homo sapiens) (UniProt P46734); conditions: Compound concentration 1000.0 nM
[22] = biological target: Serine/threonine-protein kinase BRSK1 (Homo sapiens) (UniProt Q8TDC3); conditions: Compound concentration 1000.0 nM
[23] = biological target: STE20/SPS1-related proline-alanine-rich protein kinase (Homo sapiens) (UniProt Q9UEW8); conditions: Compound concentration 1000.0 nM
[24] = biological target: Maternal embryonic leucine zipper kinase (Homo sapiens) (UniProt Q14680); conditions: Compound concentration 1000.0 nM
[25] = biological target: Fibroblast growth factor receptor 2 (Homo sapiens) (UniProt P21802); conditions: Compound concentration 1000.0 nM
[26] = tested on: Tyrosine-protein kinase ABL1 (Homo sapiens), P00519 [F317I]; conditions: Compound concentration 1000.0 nM
[27] = biological target: Serine/threonine-protein kinase 32C (Homo sapiens) (UniProt Q86UX6); conditions: Compound concentration 1000.0 nM
[28] = tested on: Proto-oncogene tyrosine-protein kinase receptor Ret (Homo sapiens), P07949 [V804L]; conditions: Compound concentration 1000.0 nM
[29] = tested on: Epidermal growth factor receptor (Homo sapiens), P00533 [UNDEFINED MUTATION]; conditions: Compound concentration 1000.0 nM
[30] = biological target: Serine/threonine-protein kinase TNNI3K (Homo sapiens) (UniProt Q59H18); conditions: Compound concentration 1000.0 nM
[31] = biological target: Myosin light chain kinase 2, skeletal/cardiac muscle (Homo sapiens) (UniProt Q9H1R3); conditions: Compound concentration 1000.0 nM
Myosin light chain kinase 2, skeletal/cardiac muscle (Homo sapiens), sequence (Q9H1R3 whole entry): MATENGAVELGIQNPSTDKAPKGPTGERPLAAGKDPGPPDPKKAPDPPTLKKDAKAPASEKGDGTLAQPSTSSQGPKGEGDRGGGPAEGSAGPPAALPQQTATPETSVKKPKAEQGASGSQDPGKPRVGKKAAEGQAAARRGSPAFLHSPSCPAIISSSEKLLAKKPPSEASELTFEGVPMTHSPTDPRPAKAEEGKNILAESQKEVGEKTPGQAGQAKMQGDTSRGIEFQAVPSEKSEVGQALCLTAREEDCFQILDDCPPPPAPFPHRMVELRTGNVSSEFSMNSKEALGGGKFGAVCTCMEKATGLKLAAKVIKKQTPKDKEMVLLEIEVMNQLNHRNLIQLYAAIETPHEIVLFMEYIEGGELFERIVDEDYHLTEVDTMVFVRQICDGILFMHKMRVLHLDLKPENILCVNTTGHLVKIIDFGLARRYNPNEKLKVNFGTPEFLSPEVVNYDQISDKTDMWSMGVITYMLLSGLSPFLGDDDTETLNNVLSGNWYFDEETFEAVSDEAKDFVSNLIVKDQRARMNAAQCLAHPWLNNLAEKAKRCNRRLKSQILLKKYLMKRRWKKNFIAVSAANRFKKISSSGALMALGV

[32] = biological target: 3-phosphoinositide-dependent protein kinase 1 (Homo sapiens) (UniProt O15530); conditions: Compound concentration 1000.0 nM
[33] = biological target: GABA-A receptor; anion channel (Rattus norvegicus) (UniProt O09028+P15431+P18506+P18508+P19969+P20236+P23574+P23576+P28471+P28473+P30191+P62813+P63079+P63138+Q91ZM7+Q9ES14); conditions: Compound concentration 10.0 uM
[34] = biological target: Calcium-dependent protein kinase 1 (Plasmodium falciparum) (UniProt P62344); conditions: Compound concentration 1000.0 nM
Calcium-dependent protein kinase 1 (Plasmodium falciparum), sequence (P62344 2-524 limits assumed): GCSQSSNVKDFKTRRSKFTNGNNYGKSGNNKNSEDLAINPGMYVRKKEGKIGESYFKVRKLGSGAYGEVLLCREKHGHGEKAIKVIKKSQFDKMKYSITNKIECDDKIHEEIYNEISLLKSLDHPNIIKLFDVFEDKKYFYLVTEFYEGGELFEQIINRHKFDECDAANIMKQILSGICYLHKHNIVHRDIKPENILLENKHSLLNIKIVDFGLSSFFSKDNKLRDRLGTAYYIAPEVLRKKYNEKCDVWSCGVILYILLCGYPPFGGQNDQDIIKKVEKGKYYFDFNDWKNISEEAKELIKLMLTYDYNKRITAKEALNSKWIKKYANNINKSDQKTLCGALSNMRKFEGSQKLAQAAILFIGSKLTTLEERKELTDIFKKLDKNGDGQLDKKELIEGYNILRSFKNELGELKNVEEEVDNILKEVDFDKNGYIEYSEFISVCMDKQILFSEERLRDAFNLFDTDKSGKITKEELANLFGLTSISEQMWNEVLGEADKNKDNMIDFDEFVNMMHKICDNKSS

[35] = tested on: Epidermal growth factor receptor (Homo sapiens), P00533 [L861Q]; conditions: Compound concentration 1000.0 nM
[36] = biological target: Casein kinase I isoform delta (Homo sapiens) (UniProt P48730); conditions: Compound concentration 1000.0 nM
[37] = biological target: Serine/threonine-protein kinase RIO1 (Homo sapiens) (UniProt Q9BRS2); conditions: Compound concentration 1000.0 nM
[38] = biological target: Serine/threonine-protein kinase PAK 5 (Homo sapiens) (UniProt Q9P286); conditions: Compound concentration 1000.0 nM
[39] = biological target: Tyrosine-protein kinase Blk (Homo sapiens) (UniProt P51451); conditions: Compound concentration 1000.0 nM
Tyrosine-protein kinase Blk (Homo sapiens), sequence (P51451 2-505 limits assumed): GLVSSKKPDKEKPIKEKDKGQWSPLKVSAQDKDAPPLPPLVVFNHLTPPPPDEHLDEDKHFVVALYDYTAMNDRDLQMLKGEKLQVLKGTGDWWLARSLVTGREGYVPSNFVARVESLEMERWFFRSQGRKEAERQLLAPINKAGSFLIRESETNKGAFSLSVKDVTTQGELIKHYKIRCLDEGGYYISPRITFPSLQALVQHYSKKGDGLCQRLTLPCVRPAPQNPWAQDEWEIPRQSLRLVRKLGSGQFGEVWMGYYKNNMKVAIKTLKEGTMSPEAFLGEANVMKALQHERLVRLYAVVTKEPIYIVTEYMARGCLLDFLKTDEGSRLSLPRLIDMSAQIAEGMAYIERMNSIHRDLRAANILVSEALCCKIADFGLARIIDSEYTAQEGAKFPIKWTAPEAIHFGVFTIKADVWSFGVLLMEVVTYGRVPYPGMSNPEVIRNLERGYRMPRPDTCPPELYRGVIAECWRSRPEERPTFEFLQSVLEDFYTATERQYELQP

[40] = biological target: Casein kinase I isoform alpha (Homo sapiens) (UniProt P48729); conditions: Compound concentration 1000.0 nM
[41] = biological target: Mitogen-activated protein kinase kinase kinase 20 (Homo sapiens) (UniProt Q9NYL2); conditions: Compound concentration 1000.0 nM
Mitogen-activated protein kinase kinase kinase 20 (Homo sapiens), sequence (Q9NYL2 2-800 limits assumed): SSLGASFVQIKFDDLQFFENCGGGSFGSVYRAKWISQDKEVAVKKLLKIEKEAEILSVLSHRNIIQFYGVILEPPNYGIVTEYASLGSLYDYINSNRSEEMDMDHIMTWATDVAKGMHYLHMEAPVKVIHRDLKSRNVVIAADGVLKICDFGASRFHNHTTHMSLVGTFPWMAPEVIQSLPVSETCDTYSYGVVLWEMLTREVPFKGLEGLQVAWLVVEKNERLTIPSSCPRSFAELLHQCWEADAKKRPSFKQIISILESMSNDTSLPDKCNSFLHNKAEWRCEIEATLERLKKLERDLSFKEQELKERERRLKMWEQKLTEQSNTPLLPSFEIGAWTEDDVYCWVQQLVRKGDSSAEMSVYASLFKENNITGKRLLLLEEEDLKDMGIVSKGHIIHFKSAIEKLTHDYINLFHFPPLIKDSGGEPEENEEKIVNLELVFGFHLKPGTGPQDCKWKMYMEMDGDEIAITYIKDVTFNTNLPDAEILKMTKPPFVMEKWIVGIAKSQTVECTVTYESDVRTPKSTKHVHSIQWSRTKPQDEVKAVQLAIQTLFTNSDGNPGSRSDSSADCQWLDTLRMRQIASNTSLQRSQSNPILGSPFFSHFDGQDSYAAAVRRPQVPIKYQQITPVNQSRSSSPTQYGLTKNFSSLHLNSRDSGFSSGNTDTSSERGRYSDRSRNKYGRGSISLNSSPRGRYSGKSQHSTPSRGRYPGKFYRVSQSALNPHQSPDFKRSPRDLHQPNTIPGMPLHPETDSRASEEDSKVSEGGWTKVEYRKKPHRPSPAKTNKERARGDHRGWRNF

[42] = biological target: Rhodopsin kinase GRK7 (Homo sapiens) (UniProt Q8WTQ7); conditions: Compound concentration 1000.0 nM
[43] = biological target: Bone morphogenetic protein receptor type-2 (Homo sapiens) (UniProt Q13873); conditions: Compound concentration 1000.0 nM
Bone morphogenetic protein receptor type-2 (Homo sapiens), sequence (Q13873 whole entry): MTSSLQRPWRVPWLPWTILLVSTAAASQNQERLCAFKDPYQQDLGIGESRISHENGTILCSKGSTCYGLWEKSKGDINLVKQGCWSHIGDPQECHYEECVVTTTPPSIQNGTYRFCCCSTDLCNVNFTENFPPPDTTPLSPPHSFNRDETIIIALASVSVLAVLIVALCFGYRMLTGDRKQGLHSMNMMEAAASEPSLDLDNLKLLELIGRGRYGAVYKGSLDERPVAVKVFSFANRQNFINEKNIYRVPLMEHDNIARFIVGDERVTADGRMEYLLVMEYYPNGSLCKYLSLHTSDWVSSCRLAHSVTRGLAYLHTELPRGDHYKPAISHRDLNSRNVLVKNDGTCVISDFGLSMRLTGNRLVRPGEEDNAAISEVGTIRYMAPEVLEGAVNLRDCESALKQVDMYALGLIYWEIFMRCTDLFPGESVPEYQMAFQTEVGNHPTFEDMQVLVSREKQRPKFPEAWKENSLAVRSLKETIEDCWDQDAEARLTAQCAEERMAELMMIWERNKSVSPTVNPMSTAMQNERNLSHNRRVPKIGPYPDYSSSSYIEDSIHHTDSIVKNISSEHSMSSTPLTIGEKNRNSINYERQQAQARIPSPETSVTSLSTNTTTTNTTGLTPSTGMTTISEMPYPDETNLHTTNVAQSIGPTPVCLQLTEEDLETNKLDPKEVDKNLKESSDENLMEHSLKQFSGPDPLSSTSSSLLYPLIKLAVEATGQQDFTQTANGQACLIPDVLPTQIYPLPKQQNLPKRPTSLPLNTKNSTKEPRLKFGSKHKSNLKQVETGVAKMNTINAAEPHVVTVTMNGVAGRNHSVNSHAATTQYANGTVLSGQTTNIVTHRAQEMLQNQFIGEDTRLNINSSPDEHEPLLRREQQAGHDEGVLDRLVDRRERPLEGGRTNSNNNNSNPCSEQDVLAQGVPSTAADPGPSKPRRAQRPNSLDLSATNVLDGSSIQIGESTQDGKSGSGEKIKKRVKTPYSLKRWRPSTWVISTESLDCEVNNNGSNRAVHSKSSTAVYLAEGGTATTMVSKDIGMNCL

[44] = biological target: Mitogen-activated protein kinase 3 (Homo sapiens) (UniProt P27361); conditions: Compound concentration 1000.0 nM

CN([C@@H]1CCc2c(CC(=O)O)c3ccccc3n2C1)S(=O)(=O)c1ccc(F)cc1 [MK-7246]
inactive: residual activity [1] 100% | residual activity [2] 100% | residual activity [3] 100% | residual activity [4] 100% | residual activity [5] 100% | residual activity [6] 100% | residual activity [7] 83% | residual activity [8] 100% | residual activity [9] 100% | residual activity [10] 100% | residual activity [11] 100% | residual activity [12] 100% | residual activity [13] 95% | residual activity [14] 97% | residual activity [15] 99% | residual activity [16] 100% | residual activity [17] 87% | residual activity [18] 100% | residual activity [19] 94% | residual activity [20] 100% | residual activity [21] 84% | residual activity [22] 100% | residual activity [23] 100% | residual activity [24] 93% | residual activity [25] 80% | residual activity [26] 79% | residual activity [27] 100% | residual activity [28] 99% | residual activity [29] 100% | residual activity [30] 100% | residual activity [31] 100% | residual activity [32] 100% | inhibition [33] 27.7% | residual activity [34] 90% | residual activity [35] 100% | residual activity [36] 100% | residual activity [37] 100% | residual activity [38] 100% | residual activity [39] 100% | residual activity [40] 80% | residual activity [41] 99% | residual activity [42] 93% | residual activity [43] 100% | residual activity [44] 100%

CN([C@@H]1CCc2c(CC(=O)O)c3cc(S(C)(=O)=O)ccc3n2C1)S(=O)(=O)c1ccc(F)cc1
inactive: residual activity [1] 100% | residual activity [2] 99% | residual activity [3] 100% | residual activity [4] 97% | residual activity [5] 100% | residual activity [6] 79% | residual activity [7] 88% | residual activity [8] 96% | residual activity [9] 100% | residual activity [10] 100% | residual activity [11] 98% | residual activity [12] 100% | residual activity [13] 100% | residual activity [14] 100% | residual activity [15] 100% | residual activity [16] 85% | residual activity [17] 79% | residual activity [18] 98% | residual activity [19] 100% | residual activity [20] 100% | residual activity [21] 88% | residual activity [22] 94% | residual activity [23] 86% | residual activity [24] 84% | residual activity [25] 89% | residual activity [26] 75% | residual activity [27] 100% | residual activity [28] 100% | residual activity [29] 100% | residual activity [30] 100% | residual activity [31] 100% | residual activity [32] 100% | inhibition [33] 45% | residual activity [34] 75% | residual activity [35] 100% | residual activity [36] 100% | residual activity [37] 100% | residual activity [38] 100% | residual activity [39] 99% | residual activity [40] 100% | residual activity [41] 80% | residual activity [42] 97% | residual activity [43] 100% | residual activity [44] 92%
